In patent US20230416261A1, “ETHANEDIAMINE-HETEROCYCLE DERIVATIVES AS INHIBITORS OF PROTEIN ARGININE METHYLTRANSFERASES” (Board of Regents, The University of Texas System, priority 2021, published 2023):

Key:
[1] = biological target: T1, PRMT1 (Homo sapiens, UniProt Q99873); assay: PRMT1 RKO Cellular Target Engagement Assay (In-Cell Western, asymmetric di-methyl arginine); format: cell-based; conditions: RKO cells, 48 hr compound incubation; read-out: RKO IC50 (PRMT-1 Target Engagement)
In short: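 RKO cells (1,000/well) received 1:3 serially diluted compound for 48 h at 37 °C, then were fixed, permeabilised and immunostained for asymmetric di-methyl arginine by In-Cell Western. The 800 nm antibody signal was normalised to CellTag 700 nm; IC50 from four-parameter logistic fit.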

[2] = tested on: PATC53 cells; assay: PATC53 Long Term Phenotypic Assay (14 days, crystal violet viability); format: cell-based; conditions: 336 h
In short: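 Cells seeded at 250 per well, allowed 24 h to settle, then treated with 1:3 serial dilutions of compound for 14 days at 37 °C, 5% CO2. Viability measured by crystal violet staining, solubilised in 10% HOAc, absorbance 590 nm; IC50 from four-parameter logistic fit.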

[3] = biological target: T1, PRMT1; assay: PRMT1 Enzymatic Assay (LANCE TR-FRET, methylation of histone H4 at Arg3); format: biochemical; design: purchased SignalChem P365-380G; conditions: PRMT1 1.5 nM, SAM 1 μM, biotinylated histone H4 (1-21) 25 nM; read-out: PRMT-1 IC50
In short: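 PRMT1 (1.5 nM) preincubated 15 min with compound at room temperature, then reacted 1 h with 1 μM SAM and 25 nM biotinylated histone H4 (1-21) in 50 mM Hepes pH 8, 1 mM TCEP, 0.003% Tween-20. H4R3me detected by TR-FRET (665/620 nm ratio); IC50 from four-parameter logistic fit.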

[4] = tested on: DOHH2 cells; assay: DOHH2 Long Term Phenotypic Assay (7 days, Cell Titer-Glo viability); format: cell-based; conditions: Homo sapiens, DOHH-2, 168 h, Cell Titer-Glo 2.0
In short: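 DOHH2 lymphoma cells (250 per well) in RPMI-1640 with 10% FBS were exposed to 1:3 serially diluted compounds for 7 days at 37 °C, 5% CO2. Viability was read by CellTiter-Glo 2.0 luminescence, and IC50 values came from four-parameter logistic fits.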

T1 sequence (Q99873 whole entry): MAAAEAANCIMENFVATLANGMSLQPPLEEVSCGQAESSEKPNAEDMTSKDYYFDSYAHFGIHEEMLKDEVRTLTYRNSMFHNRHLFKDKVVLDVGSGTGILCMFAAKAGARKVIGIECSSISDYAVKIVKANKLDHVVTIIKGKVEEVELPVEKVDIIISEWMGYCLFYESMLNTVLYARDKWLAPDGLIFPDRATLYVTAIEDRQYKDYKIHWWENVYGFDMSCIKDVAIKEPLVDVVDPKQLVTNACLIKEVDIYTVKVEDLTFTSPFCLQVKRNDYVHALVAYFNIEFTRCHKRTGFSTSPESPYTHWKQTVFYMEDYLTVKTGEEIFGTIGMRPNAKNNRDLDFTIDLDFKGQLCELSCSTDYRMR

IC50 [1]	IC50 [3]	Compound	IC50 [2]	IC50 [4]
214 nM	52 nM	CNCCN(C)Cc1nn2c(c1C1CCC(COC)(COC)CC1)CN(C(=O)C1(C)CCC1)CC2 [Example 19, (3-(4,4-bis(methoxymethyl)-cyclohexyl)-2-((methyl(2-(methylamino)ethyl)amino)-methyl)-6,7-dihydropyrazolo-[1,5-a]pyrazin-5(4H)-yl)(1-methylcyclobutyl)methanone]	37 nM	87 nM
225 nM	56 nM	CNCCN(C)Cc1nn2c(c1C1CCC(COC)(COC)CC1)CN(C(=O)C1(F)CC1)CC2 [Example 13, (3-(4,4-bis(methoxymethyl)-cyclohexyl)-2-((methyl(2-(methylamino)ethyl)amino)-methyl)-6,7-dihydropyrazolo-[1,5-a]pyrazin-5(4H)-yl)(1-fluorocyclopropyl)methanone]	38 nM	150 nM
345 nM	54 nM	CNCCN(C)Cc1nn2c(c1C1CCC(COC)(COC)CC1)CN(C(=O)CC1CCC1)CC2 [Example 60, 1-(3-(4,4-bis(methoxy-methyl)cyclohexyl)-2-((methyl(2-(methylamino)-ethyl)amino)methyl)-6,7-dihydropyrazolo[1,5-a]-pyrazin-5(4H)-yl)-2-cyclobutylethan-1-one]	33 nM	82 nM
1240 nM	17 nM	COCC1(COC)CCC(c2c(CN(C)CCN)nn3c2CN(C(=O)C2CCC(F)(F)CC2)CC3)CC1 [Example 50, (2-(((2-aminoethyl)(methyl)-amino)methyl)-3-(4,4-bis-(methoxymethyl)cyclohexyl)-6,7-dihydropyrazolo[1,5-a]-pyrazin-5(4H)-yl)(4,4-difluorocyclohexyl)-methanone]	154 nM	171 nM
907 nM	139 nM	CNCCN(C)Cc1nn2c(c1C1CCC(COC)(COC)CC1)CN(C(=O)C1(OC)CCC1)CC2 [Example 28, (3-(4,4-bis(methoxymethyl)-cyclohexyl)-2-((methyl(2-(methylamino)ethyl)amino)-methyl)-6,7-dihydropyrazolo-[1,5-a]pyrazin-5(4H)-yl)(1-methoxycyclobutyl)-methanone]	435 nM	207 nM
690 nM	103 nM	CNCCN(C)Cc1nn2c(c1C1CCC(COC)(COC)CC1)CN(C(=O)C(C)C#N)CC2 (centres unmarked) [Example 38, 3-(3-(4,4-bis(methoxy-methyl)cyclohexyl)-2-((methyl(2-(methylamino)-ethyl)amino)methyl)-6,7-dihydropyrazolo[1,5-a]-pyrazin-5(4H)-yl)-2-methyl-3-oxopropanenitrile]	580 nM	83 nM
818 nM	62 nM	CNCCN(C)Cc1nn2c(c1C1CCC(COC)(COC)CC1)CN(C(=O)C1CCOC1)CC2 (centres unmarked) [Example 35, (3-(4,4-bis(methoxymethyl)-cyclohexyl)-2-((methyl(2-(methylamino)ethyl)amino)-methyl)-6,7-dihydropyrazolo-[1,5-a]pyrazin-5(4H)-yl)-(tetrahydrofuran-3-yl)-methanone]	655 nM	212 nM
269 nM	50 nM	CNCCN(C)Cc1nn2c(c1C1CCC(COC)(COC)CC1)CN(C(=O)C(C)(F)F)CC2 [Example 36, 1-(3-(4,4-bis(methoxy-methyl)cyclohexyl)-2-((methyl(2-(methylamino)-ethyl)amino)methyl)-6,7-dihydropyrazolo[1,5-a]-pyrazin-5(4H)-yl)-2,2-difluoropropan-1-one]	246 nM	190 nM
431 nM	29 nM	COCC1(COC)CCC(c2c(CN(C)CCN)nn3c2CN(C(=O)C2CCCC2)CC3)CC1 [Example 42, (2-(((2-aminoethyl)(methyl)-amino)methyl)-3-(4,4-bis-(methoxymethyl)cyclohexyl)-6,7-dihydropyrazolo[1,5-a]-pyrazin-5(4H)-yl)-(cyclopentyl)methanone]	136 nM	180 nM
128 nM	121 nM	CNCCN(C)Cc1nn2c(c1C1CCC(COC)(COC)CC1)CN(C(=O)C(C)C(F)(F)F)CC2 (centres unmarked) [Example 68, 1-(3-(4,4-bis(methoxy-methyl)cyclohexyl)-2-((methyl(2-(methylamino)-ethyl)amino)methyl)-6,7-dihydropyrazolo[1,5-a]-pyrazin-5(4H)-yl)-3,3,3-trifluoro-2-methylpropan-1-one]	41 nM	71 nM
370 nM	64 nM	CNCCN(C)Cc1nn2c(c1C1CCC(COC)(COC)CC1)CN(C(=O)C1(C)COC1)CC2 [Example 16, (3-(4,4-bis(methoxymethyl)-cyclohexyl)-2-((methyl(2-(methylamino)ethyl)amino)-methyl)-6,7-dihydropyrazolo-[1,5-a]pyrazin-5(4H)-yl)(3-methyloxetan-3-yl)methanone]	209 nM	160 nM
